PubChem BioAssay (NCI)
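Five concentrations, 48 hours, 96-well plates. GI50 is the concentration that inhibits growth by half. TGI is the concentration that stops growth completely.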

How the values were obtained:
Assay in all cases: growth of human tumour cells (NCI), 48 h
TK-10 renal = system: TK-10 renal
SF-268 CNS = system: SF-268 CNS
NCI-H522 lung = system: NCI-H522 lung
NCI-H460 lung = system: NCI-H460 lung
OVCAR-8 ovarian = system: OVCAR-8 ovarian
SN12C renal = system: SN12C renal
ACHN renal = system: ACHN renal
UACC-257 melanoma = system: UACC-257 melanoma
SNB-75 CNS = system: SNB-75 CNS
HCT-15 colon = system: HCT-15 colon
CCRF-CEM leukemia = system: CCRF-CEM leukemia
A549 NSCLC = system: A549 NSCLC
NCI-H226 lung = system: NCI-H226 lung
U251 CNS = system: U251 CNS
OVCAR-5 ovarian = system: OVCAR-5 ovarian
PC-3 prostate = system: PC-3 prostate
SK-MEL-28 melanoma = system: SK-MEL-28 melanoma
SK-MEL-5 melanoma = system: SK-MEL-5 melanoma
A498 renal = system: A498 renal
HL-60(TB) leukemia = system: HL-60(TB) leukemia
UACC-62 melanoma = system: UACC-62 melanoma
LOX IMVI melanoma = system: LOX IMVI melanoma
MDA-MB-231 breast = system: MDA-MB-231 breast
SF-539 CNS = system: SF-539 CNS
SW-620 colon = system: SW-620 colon
M14 melanoma = system: M14 melanoma
HCC-2998 colon = system: HCC-2998 colon
NCI/ADR-RES ovarian = system: NCI/ADR-RES ovarian
EKVX NSCLC = system: EKVX NSCLC
IGROV1 ovarian = system: IGROV1 ovarian
MDA-MB-435 = system: MDA-MB-435
CAKI-1 renal = system: CAKI-1 renal
NCI-H23 lung = system: NCI-H23 lung
DU-145 prostate = system: DU-145 prostate
KM12 colon = system: KM12 colon
MCF7 breast = system: MCF7 breast
OVCAR-3 ovarian = system: OVCAR-3 ovarian
MALME-3M melanoma = system: MALME-3M melanoma
SNB-19 CNS = system: SNB-19 CNS
HCT-116 colon = system: HCT-116 colon
BT-549 breast = system: BT-549 breast
HOP-92 NSCLC = system: HOP-92 NSCLC
K-562 leukemia = system: K-562 leukemia
HT29 colon = system: HT29 colon
HS 578T breast = system: HS 578T breast
UO-31 renal = system: UO-31 renal
SK-OV-3 ovarian = system: SK-OV-3 ovarian
SK-MEL-2 melanoma = system: SK-MEL-2 melanoma
HOP-62 NSCLC = system: HOP-62 NSCLC
RPMI-8226 leukemia = system: RPMI-8226 leukemia
OVCAR-4 ovarian = system: OVCAR-4 ovarian
RXF 393 renal = system: RXF 393 renal
MOLT-4 leukemia = system: MOLT-4 leukemia
SR leukemia = system: SR leukemia
786-0 renal = system: 786-0 renal
COLO 205 colon = system: COLO 205 colon

Work on `COc1cc(-c2ccc(-c3ccc(C(=N)N)nc3)s2)cc(OC)c1OC` yielded a GI50 (TK-10 renal) of 3.19 µM, a TGI (TK-10 renal) of 9.35 µM and a GI50 (SF-268 CNS) of 14.6 µM. For the same compound, the TGI (SF-268 CNS) was 33.2 µM, the GI50 (NCI-H522 lung) was 1.8 µM and the TGI (NCI-H522 lung) was 4.14 µM. It also gave a GI50 (NCI-H460 lung) of 2.1 µM, a TGI (NCI-H460 lung) of 4.39 µM and a GI50 (OVCAR-8 ovarian) of 2.3 µM. For the same compound, the TGI (OVCAR-8 ovarian) was 5.23 µM, the GI50 (SN12C renal) was 2.05 µM and the TGI (SN12C renal) was 4.71 µM. The GI50 (ACHN renal) was 1.73 µM, the TGI (ACHN renal) was 3.14 µM and the GI50 (UACC-257 melanoma) was 2.15 µM. For the same compound, the TGI (UACC-257 melanoma) was 4.07 µM, the GI50 (SNB-75 CNS) was 1.5 µM and the TGI (SNB-75 CNS) was 5.16 µM. It also gave a GI50 (HCT-15 colon) of 2.18 µM, a TGI (HCT-15 colon) of 6.41 µM and a GI50 (CCRF-CEM leukemia) of 2.49 µM. The TGI (CCRF-CEM leukemia) was 7.41 µM, the GI50 (A549 NSCLC) was 2.06 µM and the TGI (A549 NSCLC) was 4.51 µM. It also gave a GI50 (NCI-H226 lung) of 10.8 µM, a TGI (NCI-H226 lung) of 31.1 µM and a GI50 (U251 CNS) of 1.74 µM. For the same compound, the TGI (U251 CNS) was 3.53 µM, the GI50 (OVCAR-5 ovarian) was 2.1 µM and the TGI (OVCAR-5 ovarian) was 5.38 µM. It also gave a GI50 (PC-3 prostate) of 3.11 µM, a TGI (PC-3 prostate) of 12.7 µM and a GI50 (SK-MEL-28 melanoma) of 1.62 µM. It also gave a TGI (SK-MEL-28 melanoma) of 3.18 µM, a GI50 (SK-MEL-5 melanoma) of 1.67 µM and a TGI (SK-MEL-5 melanoma) of 3.08 µM. The GI50 (A498 renal) was 4.9 µM, the TGI (A498 renal) was 18.2 µM and the GI50 (HL-60(TB) leukemia) was 1.87 µM. For the same compound, the TGI (HL-60(TB) leukemia) was 4.21 µM, the GI50 (UACC-62 melanoma) was 1.73 µM and the TGI (UACC-62 melanoma) was 3.3 µM. It also gave a GI50 (LOX IMVI melanoma) of 1.87 µM, a TGI (LOX IMVI melanoma) of 3.48 µM and a GI50 (MDA-MB-231 breast) of 1.85 µM. For the same compound, the TGI (MDA-MB-231 breast) was 4.2 µM, the GI50 (SF-539 CNS) was 1.61 µM and the TGI (SF-539 CNS) was 3.01 µM. It also gave a GI50 (SW-620 colon) of 2.09 µM, a TGI (SW-620 colon) of 5.24 µM and a GI50 (M14 melanoma) of 1.66 µM. It also gave a TGI (M14 melanoma) of 3.33 µM, a GI50 (HCC-2998 colon) of 2 µM and a TGI (HCC-2998 colon) of 3.9 µM. The GI50 (NCI/ADR-RES ovarian) was 5.2 µM, the TGI (NCI/ADR-RES ovarian) was 24.1 µM and the GI50 (EKVX NSCLC) was 5.19 µM. For the same compound, the TGI (EKVX NSCLC) was 18.2 µM, the GI50 (IGROV1 ovarian) was 2.63 µM and the TGI (IGROV1 ovarian) was 6.2 µM. The GI50 (MDA-MB-435) was 1.62 µM, the TGI (MDA-MB-435) was 3.05 µM and the GI50 (CAKI-1 renal) was 1.59 µM. The TGI (CAKI-1 renal) was 3.19 µM, the GI50 (NCI-H23 lung) was 6.4 µM and the TGI (NCI-H23 lung) was 22.6 µM. The GI50 (DU-145 prostate) was 3.45 µM, the TGI (DU-145 prostate) was 12.1 µM and the GI50 (KM12 colon) was 2.78 µM. The TGI (KM12 colon) was 10.5 µM, the GI50 (MCF7 breast) was 1.3 µM and the TGI (MCF7 breast) was 3.24 µM. It also gave a GI50 (OVCAR-3 ovarian) of 2.6 µM, a TGI (OVCAR-3 ovarian) of 6.35 µM and a GI50 (MALME-3M melanoma) of 1.53 µM. The TGI (MALME-3M melanoma) was 3 µM, the GI50 (SNB-19 CNS) was 4.73 µM and the TGI (SNB-19 CNS) was 16.3 µM. For the same compound, the GI50 (HCT-116 colon) was 1.47 µM, the TGI (HCT-116 colon) was 2.87 µM and the GI50 (BT-549 breast) was 1.67 µM. The TGI (BT-549 breast) was 3.49 µM, the GI50 (HOP-92 NSCLC) was 1.91 µM and the TGI (HOP-92 NSCLC) was 8.37 µM. The GI50 (K-562 leukemia) was 1.39 µM, the TGI (K-562 leukemia) was 4.46 µM and the GI50 (HT29 colon) was 1.37 µM. For the same compound, the TGI (HT29 colon) was 5.68 µM, the GI50 (HS 578T breast) was 2.59 µM and the TGI (HS 578T breast) was 8.52 µM. The GI50 (UO-31 renal) was 1.88 µM, the TGI (UO-31 renal) was 3.4 µM and the GI50 (SK-OV-3 ovarian) was 13.1 µM. It also gave a TGI (SK-OV-3 ovarian) of 26 µM, a GI50 (SK-MEL-2 melanoma) of 2.09 µM and a TGI (SK-MEL-2 melanoma) of 4.35 µM. The GI50 (HOP-62 NSCLC) was 2.79 µM, the TGI (HOP-62 NSCLC) was 11.5 µM and the GI50 (RPMI-8226 leukemia) was 1.67 µM. The TGI (RPMI-8226 leukemia) was 3.97 µM, the GI50 (OVCAR-4 ovarian) was 2.69 µM and the TGI (OVCAR-4 ovarian) was 10.4 µM. The GI50 (RXF 393 renal) was 2.19 µM, the TGI (RXF 393 renal) was 4.83 µM and the GI50 (MOLT-4 leukemia) was 2.53 µM. For the same compound, the TGI (MOLT-4 leukemia) was 6.9 µM, the GI50 (SR leukemia) was 2.48 µM and the GI50 (786-0 renal) was 2.12 µM. For the same compound, the TGI (786-0 renal) was 3.93 µM, the GI50 (COLO 205 colon) was 1.6 µM and the TGI (COLO 205 colon) was 3.26 µM.
